Results on 4 compounds are retold here after ChEMBL document CHEMBL1201862, “PubChem BioAssay data set” (2004).

Test systems include UACC-257; SF-539; SK-OV-3; SR; HOP-62; TK-10; NCI-H522; CCRF-CEM; SK-MEL-28; K562; NCI/ADR-RES; RPMI-8226; RXF 393; MDA-MB-435; COLO 205; 786-0; Malme-3M; HCT-15; UACC-62.
What all share (test): growth of human tumour cells (NCI), 48 h

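How tested: cells in 96-well plates exposed to compound for 48 hours at five concentrations. GI50: concentration for 50% inhibition of growth.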 Active and inactive are the calls of the source. No stated cut-off is given here; in the data, active = GI50 up to about 1.1 µM and inactive = higher.

Consider `CCCCC(=O)Nc1ccc2cc(C(=O)OC)c(=O)[nH]c2n1`, for which the GI50 in the assay with UACC-257, in the assay on SF-539, with SK-OV-3, in the assay on SR, with HOP-62 and in the assay with TK-10 was > 100 µM (inactive) each time. Moreover, the GI50 in the assay on NCI-H522 is > 100 µM (inactive); in the assay with CCRF-CEM, 59.4 µM (inactive); in the assay on SK-MEL-28, > 100 µM (inactive); in the assay with K562 it was > 100 µM (inactive); in the assay with NCI/ADR-RES, > 100 µM (inactive); with RPMI-8226, > 100 µM (inactive). Besides, the GI50 was > 100 µM (inactive) in the assay with RXF 393; > 100 µM (inactive) in the assay on MDA-MB-435; > 100 µM (inactive) in the assay with COLO 205; > 100 µM (inactive) with 786-0; > 100 µM (inactive) in the assay with Malme-3M; more than 100 µM in the assay on HCT-15.

For the compound `CCN(CC)CCNc1ccc2nnn3c4ccc(OC(C)=O)cc4c(=O)c1c23`, the GI50 in the assay with UACC-257 is 9.84 µM (inactive); in the assay on SF-539 it was 1.67 µM (inactive); in the assay on SK-OV-3, 7.35 µM (inactive); in the assay on SR, 0.706 µM (active); in the assay on HOP-62, 1.98 µM (inactive); in the assay on TK-10, 3.52 µM (inactive). The GI50 is 0.628 µM (active) in the assay on NCI-H522; 0.644 µM (active) in the assay on CCRF-CEM; 13.4 µM (inactive) with SK-MEL-28; 4.45 µM (inactive) with NCI/ADR-RES; 1.59 µM (inactive) in the assay on RPMI-8226; 1.11 µM (active) in the assay with RXF 393. Besides, the GI50 was 11.4 µM (inactive) in the assay with UACC-62; 5.15 µM (inactive) with MDA-MB-435; 2.45 µM (inactive) with COLO 205; 1.11 µM (active) in the assay on Malme-3M; 1.46 µM in the assay with HCT-15.

As to `CCCCCc1c(CCCC)c(O)nc2nc(NC(=O)CCCC)ccc12`, the GI50 in the assay with UACC-257 is > 100 µM (inactive); with SF-539 it was > 100 µM (inactive); in the assay with SK-OV-3 it was > 100 µM (inactive); with SR it was 51.9 µM (inactive); in the assay with HOP-62, > 100 µM (inactive); in the assay with TK-10, > 100 µM (inactive). Besides, the GI50 in the assay with NCI-H522, in the assay with CCRF-CEM, in the assay with SK-MEL-28, in the assay with K562, in the assay with NCI/ADR-RES and with RPMI-8226 was > 100 µM (inactive) each time. Also, the GI50 with RXF 393 was > 100 µM (inactive); in the assay on MDA-MB-435, > 100 µM (inactive); in the assay on COLO 205, > 100 µM (inactive); in the assay with 786-0, > 100 µM (inactive); in the assay on Malme-3M, > 100 µM (inactive); in the assay with HCT-15, more than 100 µM.

Consider `O=S(=O)(O)c1cc(O)c2c(O)c(/N=N/c3cccc4ccccc34)c(S(=O)(=O)O)cc2c1`, for which the GI50 with UACC-257, with SF-539, in the assay on SK-OV-3, with SR, in the assay on HOP-62 and with TK-10 was > 100 µM (inactive) throughout. The GI50 in the assay with NCI-H522, with SK-MEL-28, with K562, with NCI/ADR-RES, in the assay with RPMI-8226 and in the assay with RXF 393 was > 100 µM (inactive) in each case. Besides, the GI50 is > 100 µM (inactive) in the assay with UACC-62; > 100 µM (inactive) in the assay on MDA-MB-435; > 100 µM (inactive) with COLO 205; > 100 µM (inactive) with 786-0; > 100 µM (inactive) in the assay with Malme-3M; more than 100 µM with HCT-15.
